Results as given in patent US4680285A, “Treatment of malignant tumors with 2-(β-D-ribofuranosylthiazole-4-carboxamide related compounds” (priority 1985, dated 1987).
Entries after “also recorded” stand apart in the source; their conditions may differ.

Assays:
[1] = tested on: Lewis lung seed cells (brain tumors); experiment: Intracranially inoculated Lewis lung brain tumors in vivo, survival (Example 12); design: species or system AKD2 F1 mice; conditions: for Treated Group Survival Time: control 9.6
Text: (§1) For Example 12, compound 1 was given IP to a group of AKD2 F1 mice which were inflicted by intercranial inoculation with Lewis lung seed cells to establish brain tumors.
(§2) For this test, 32 control animals were used and no control animals survived beyond day eleven with a mean death data of day 9.6 for the controls. Water was used as the drug vehicle. For both the control group and the test group, tumors were induced on day zero with initiation of drug treatment on day one where compound 1 was given once daily for nine days. Test results are expressed as T/C as per example 5.

[2] = blood brain barrier crossing after IP injection (Example 12); type: in vivo, AKD2 F1 mice; conditions: inferred from activity on intracranial tumor after IP injection
Text: as §1, §2

[3] = toxicity in tumor bearing animals; type: in vivo; conditions: dosages up to 2000 mg/Kg, toxicity day
Text: In a host which has been diagnosed as being terminally ill with a malignant tumor excessive amounts beyond any toxicity range might be indicated if there is any probability of cure of the terminally ill host as is commonly practiced in current cancer chemotherapy.

virus = conditions: cited from earlier work
[4] = tested on: type 3 parainfluenza virus; conditions: cited from earlier work
[5] = tested on: P388 lymphocytic leukemia; experiment: P388 lymphocytic leukemia in vivo, median survival, 30-day test (Examples 7 and 8); design: species or system CD2 F1 female mice
Procedure: For examples 7 and 8, CD2 F1 female mice were used and challenged with P388 lymphocytic leukemia tumors. […] The test period was for thirty days in both Examples 7 and 8.
For Examples 7 and 8, as well as Examples 9 and 10 below, any animal of the drug treated group which survived beyond the end of the testing period was then evaluated and placed in one of three groups. The first group was designated as cured, meaning the animal was successfully cured of the tumor. The second group designation was no-takes, meaning survival of the animal was considered to be due to failure of tumor implant. The remaining group was designated as tumor survivors meaning the animals lived beyond the test cut-off date but could not be classified as either cured or no-takes.
For both Examples 7 and 8, thirty animals were used as the control group and six animals each were used at each dose level indicated in tables 3 and 4 below in the drug treated groups. In both Examples 7 and 8, for both the control group and the drug treated groups, tumors were induced by IP inoculation of tumor seed cells on day zero followed by initiation of drug treatment on day one. For both Examples 7a and 8, saline with tween/80 was used as the drug vehicle. For Examples 7b and 7c, water was used as the drug vehicle.
In both the control group and the drug treated group in Examples 7 and 8, the test animals were inoculated on day zero IP with 10^6 seed cells of P388 lymphocytic leukemia. In both Examples 7 and 8, treatment of the drug group was started on day one and the drug was given IP once daily for nine days. Day six was utilized as the cut-off data for death attributable to toxicity of the drug. […] Efficacy of treatment was determined by comparing median survival time of the drug treated animals compared to median survival time of the control animals, and is expressed as percentage increase of treated animals/control animals (T/C) as per Example 5.
In this example drug treated animals were injected IP with the dose level noted in Table 3 below. Six animals were treated at each dose level. No control animals survived beyond day 18 with a median death date of day 12.6.
This examples was performed as per Example 7a at dose levels as noted in table 3b below. A survivor at both the 700 and 800 mg/Kg level was judged as cured. No controls survived beyond day 12 and the mean death day of the control group was day 11.
This example was run as per Example 7a above at dose levels noted in Table 3c below. All controls were dead by day 14 with a mean death day of day 11.9. At the 500 mg/Kg level, one animal was judged as a cure.
Compound 2, 2-(2,3,5-tri-O-acetyl-β-D-ribofuranosyl)thiazole-4-carboxamide was tested as per Example 7a above at dose levels noted in Table 4 below. No controls survived beyond day 18 with an average death date of day 12.6.

**Q.** Which “Percent Treated Animals/Control Animals” value ([1]; 25.0 mg/Kg IP once daily x9) does the source give for `NC(=O)c1csc([C@@H]2O[C@H](CO)[C@@H](O)[C@H]2O)n1` [Compound 1, 2-β-D-Ribofuranosylthiazole-4-Carboxamide] here?
**A.** 172%

**Q.** What about the “Treated Group Survival Time” value ([1]; 25.0 mg/Kg IP once daily x9) of the same compound?
**A.** 16.6 days

**Q.** What about the “Percent Treated Animals/Control Animals” value ([1]; 37.5 mg/Kg IP once daily x9) of the same compound?
**A.** 166%

**Q.** What about the “Treated Group Survival Time” value ([1]; 37.5 mg/Kg IP once daily x9) of the same compound?
**A.** 16.0 days

**Q.** And the “Percent Treated Animals/Control Animals” value ([1]; 75 mg/Kg IP once daily x9)?
**A.** 185%

**Q.** What about the “Treated Group Survival Time” value ([1]; 75 mg/Kg IP once daily x9) of the same compound?
**A.** 19.0 days

**Q.** What about the “Percent Treated Animals/Control Animals” value ([1]; 150 mg/Kg IP once daily x9) of the same compound?
**A.** 197%

**Q.** What about the “Treated Group Survival Time” value ([1]; 150 mg/Kg IP once daily x9) of the same compound?
**A.** 20.5 days

**Q.** What about the “Percent Treated Animals/Control Animals” value ([1]; 300 mg/Kg IP once daily x9) of the same compound?
**A.** 213%

**Q.** What about the “Treated Group Survival Time” value ([1]; 300 mg/Kg IP once daily x9) of the same compound?
**A.** 20.5 days

**Q.** What about the “Percent Treated Animals/Control Animals” value ([1]; 600 mg/Kg IP once daily x9) of the same compound?
**A.** 211%

**Q.** And the “Treated Group Survival Time” value ([1]; 600 mg/Kg IP once daily x9)?
**A.** 20.3 days

**Q.** And the “Percent Treated Animals/Control Animals” value ([1]; 700 mg/Kg IP once daily x9)?
**A.** 211%

**Q.** What about the “Treated Group Survival Time” value ([1]; 700 mg/Kg IP once daily x9) of the same compound?
**A.** 20.3 days

**Q.** And the “Percent Treated Animals/Control Animals” value ([1]; 800 mg/Kg IP once daily x9)?
**A.** 221%

**Q.** And the “Treated Group Survival Time” value ([1]; 800 mg/Kg IP once daily x9)?
**A.** 21.3 days

**Q.** What about the “effect on brain tumors” value ([1]; IP, once daily x9) of the same compound?
**A.** reduction of the brain tumors

**Q.** And the “crossing of the blood brain barrier” value [2]?
**A.** successful crossing of the blood brain barrier; also recorded: successfully crosses the blood brain barrier

**Q.** What about the “deaths attributed to toxicity” value [3] of the same compound?
**A.** no deaths of the animals were attributed to the toxicity

**Q.** What about the “number of deaths of test animals vs placebo control animals” value (virus; in vivo antiviral tests) of the same compound?
**A.** equal to or exceeded the number of deaths of the placebo control animals

**Q.** And the “in vivo antiviral activity” value (virus; in vivo)?
**A.** no useful in vivo antiviral activity; also recorded: negative

**Q.** And the “in vitro antiviral activity” value [4]?
**A.** only moderate

**Q.** What about the “Percent Treated Animals/Control Animals” value ([5]; Ex. 7a/8, saline with tween/80, 12.5 mg/Kg IP once daily x9) of the same compound?
**A.** 110%

**Q.** What about the “Treated Group Survival Time (median)” value ([5]; Ex. 7a/8, saline with tween/80, 12.5 mg/Kg IP once daily x9, control 12.6) of the same compound?
**A.** 13.9 days

**Q.** What about the “Percent Treated Animals/Control Animals” value ([5]; Ex. 7a/8, saline with tween/80, 25 mg/Kg IP once daily x9) of the same compound?
**A.** 113%

**Q.** What about the “Treated Group Survival Time (median)” value ([5]; Ex. 7a/8, saline with tween/80, 25 mg/Kg IP once daily x9, control 12.6) of the same compound?
**A.** 14.3 days

**Q.** What about the “Percent Treated Animals/Control Animals” value ([5]; Ex. 7a/8, saline with tween/80, 50 mg/Kg IP once daily x9) of the same compound?
**A.** 121%

**Q.** And the “Treated Group Survival Time (median)” value ([5]; Ex. 7a/8, saline with tween/80, 50 mg/Kg IP once daily x9, control 12.6)?
**A.** 15.3 days

**Q.** What about the “Percent Treated Animals/Control Animals” value ([5]; Ex. 7a/8, saline with tween/80, 100 mg/Kg IP once daily x9) of the same compound?
**A.** 145%

**Q.** And the “Treated Group Survival Time (median)” value ([5]; Ex. 7a/8, saline with tween/80, 100 mg/Kg IP once daily x9, control 12.6)?
**A.** 18.3 days

**Q.** What about the “Percent Treated Animals/Control Animals” value ([5]; Ex. 7a/8, saline with tween/80, 200 mg/Kg IP once daily x9) of the same compound?
**A.** 150%

**Q.** And the “Treated Group Survival Time (median)” value ([5]; Ex. 7a/8, saline with tween/80, 200 mg/Kg IP once daily x9, control 12.6)?
**A.** 19.0 days

**Q.** And the “Percent Treated Animals/Control Animals” value ([5]; Ex. 7a/8, saline with tween/80, 400 mg/Kg IP once daily x9)?
**A.** 161%

**Q.** And the “Treated Group Survival Time (median)” value ([5]; Ex. 7a/8, saline with tween/80, 400 mg/Kg IP once daily x9, control 12.6)?
**A.** 20.3 days

**Q.** And the “surviving animals judged as no-take” value ([5]; Ex. 7a/8, 50 mg/Kg, thirty days)?
**A.** one drug treated animal survived and was judged as a no-take

**Q.** What about the “Percent Treated Animals/Control Animals” value ([5]; Ex. 7b, water, 300 mg/Kg IP once daily x9) of the same compound?
**A.** 198%

**Q.** And the “Treated Group Survival Time (median)” value ([5]; Ex. 7b, water, 300 mg/Kg IP once daily x9, control 11.0)?
**A.** 21.8 days

**Q.** What about the “Percent Treated Animals/Control Animals” value ([5]; Ex. 7b, water, 400 mg/Kg IP once daily x9) of the same compound?
**A.** 224%

**Q.** What about the “Treated Group Survival Time (median)” value ([5]; Ex. 7b, water, 400 mg/Kg IP once daily x9, control 11.0) of the same compound?
**A.** 24.7 days

**Q.** What about the “Percent Treated Animals/Control Animals” value ([5]; Ex. 7b, water, 500 mg/Kg IP once daily x9) of the same compound?
**A.** 190%

**Q.** What about the “Treated Group Survival Time (median)” value ([5]; Ex. 7b, water, 500 mg/Kg IP once daily x9, control 11.0) of the same compound?
**A.** 21.8 days

**Q.** And the “Percent Treated Animals/Control Animals” value ([5]; Ex. 7b, water, 600 mg/Kg IP once daily x9)?
**A.** 234%

**Q.** What about the “Treated Group Survival Time (median)” value ([5]; Ex. 7b, water, 600 mg/Kg IP once daily x9, control 11.0) of the same compound?
**A.** 25.8 days

**Q.** What about the “Percent Treated Animals/Control Animals” value ([5]; Ex. 7b, water, 700 mg/Kg IP once daily x9) of the same compound?
**A.** 245%

**Q.** What about the “Treated Group Survival Time (median)” value ([5]; Ex. 7b, water, 700 mg/Kg IP once daily x9, control 11.0) of the same compound?
**A.** 27.0 days

**Q.** And the “Percent Treated Animals/Control Animals” value ([5]; Ex. 7b, water, 800 mg/Kg IP once daily x9)?
**A.** 245%

**Q.** What about the “Treated Group Survival Time (median)” value ([5]; Ex. 7b, water, 800 mg/Kg IP once daily x9, control 11.0) of the same compound?
**A.** 27.0 days

**Q.** What about the “survivors judged as cured” value ([5]; Ex. 7b, 700 mg/Kg, thirty days) of the same compound?
**A.** A survivor

**Q.** And the “survivors judged as cured” value ([5]; Ex. 7b, 800 mg/Kg, thirty days)?
**A.** A survivor

**Q.** And the “Percent Treated Animals/Control Animals” value ([5]; Ex. 7c, water, 300 mg/Kg IP once daily x9)?
**A.** 193%

**Q.** What about the “Treated Group Survival Time (median)” value ([5]; Ex. 7c, water, 300 mg/Kg IP once daily x9, control 11.9) of the same compound?
**A.** 23.0 days

**Q.** And the “Percent Treated Animals/Control Animals” value ([5]; Ex. 7c, water, 400 mg/Kg IP once daily x9)?
**A.** 201%

**Q.** And the “Treated Group Survival Time (median)” value ([5]; Ex. 7c, water, 400 mg/Kg IP once daily x9, control 11.9)?
**A.** 24.0 days

**Q.** What about the “Percent Treated Animals/Control Animals” value ([5]; Ex. 7c, water, 500 mg/Kg IP once daily x9) of the same compound?
**A.** 210%

**Q.** And the “Treated Group Survival Time (median)” value ([5]; Ex. 7c, water, 500 mg/Kg IP once daily x9, control 11.9)?
**A.** 25.0 days

**Q.** And the “Percent Treated Animals/Control Animals” value ([5]; Ex. 7c, water, 600 mg/Kg IP once daily x9)?
**A.** 237%

**Q.** What about the “Treated Group Survival Time (median)” value ([5]; Ex. 7c, water, 600 mg/Kg IP once daily x9, control 11.9) of the same compound?
**A.** 28.3 days

**Q.** And the “Percent Treated Animals/Control Animals” value ([5]; Ex. 7c, water, 700 mg/Kg IP once daily x9)?
**A.** 86%

**Q.** And the “Treated Group Survival Time (median)” value ([5]; Ex. 7c, water, 700 mg/Kg IP once daily x9, control 11.9)?
**A.** 10. day

**Q.** What about the “Percent Treated Animals/Control Animals” value ([5]; Ex. 7c, water, 800 mg/Kg IP once daily x9) of the same compound?
**A.** 99%

**Q.** What about the “Treated Group Survival Time (median)” value ([5]; Ex. 7c, water, 800 mg/Kg IP once daily x9, control 11.9) of the same compound?
**A.** 11.8 days

**Q.** And the “animals judged as a cure” value ([5]; Ex. 7c, 500 mg/Kg, thirty days)?
**A.** one animal

**Q.** What about the “animal mortality attributed to drug toxicity” value ([5]; Example 7b, day six cut-off) of the same compound?
**A.** only one instance

**Q.** And the “activity against P388 lymphocytic leukemia” value ([5]; Examples 7 and 8, multiple dose)?
**A.** active antitumor agents; also recorded: active against P388 lymphocytic leukemia

**Q.** What about the “DN 2 (Decision Network) criteria of the National Cancer Institute” value ([5]; P388) of the same compound?
**A.** successfully passed
